Test results reported in ChEMBL document CHEMBL1201862, “PubChem BioAssay data set” (2004).
Calls of active or inactive are those of the source.

How the values were obtained:
Escherichia coli = assay: microbe, parasite or virus in culture
HEK293 [1] = assay: NOD1 signaling inhibitors, primary screen, cell-based, luminescence, uHTS (AID 1578); type: functional; conditions: Homo sapiens
HEK293 [2] = assay: cells; type: functional, cell-based; conditions: Homo sapiens
HEK293 [3] = assay: cells; type: functional, cell-based; conditions: Homo sapiens; remark: listed apart in the source
[4] = target: Nucleotide-binding oligomerization domain-containing protein 2 (Homo sapiens, UniProt Q9HC29); assay: NOD2 signaling inhibitors, cell-based, luminescence, uHTS, HEK293 (AID 1566); type: functional
Nucleotide-binding oligomerization domain-containing protein 2, sequence (Q9HC29 whole entry, the tested form may be a part): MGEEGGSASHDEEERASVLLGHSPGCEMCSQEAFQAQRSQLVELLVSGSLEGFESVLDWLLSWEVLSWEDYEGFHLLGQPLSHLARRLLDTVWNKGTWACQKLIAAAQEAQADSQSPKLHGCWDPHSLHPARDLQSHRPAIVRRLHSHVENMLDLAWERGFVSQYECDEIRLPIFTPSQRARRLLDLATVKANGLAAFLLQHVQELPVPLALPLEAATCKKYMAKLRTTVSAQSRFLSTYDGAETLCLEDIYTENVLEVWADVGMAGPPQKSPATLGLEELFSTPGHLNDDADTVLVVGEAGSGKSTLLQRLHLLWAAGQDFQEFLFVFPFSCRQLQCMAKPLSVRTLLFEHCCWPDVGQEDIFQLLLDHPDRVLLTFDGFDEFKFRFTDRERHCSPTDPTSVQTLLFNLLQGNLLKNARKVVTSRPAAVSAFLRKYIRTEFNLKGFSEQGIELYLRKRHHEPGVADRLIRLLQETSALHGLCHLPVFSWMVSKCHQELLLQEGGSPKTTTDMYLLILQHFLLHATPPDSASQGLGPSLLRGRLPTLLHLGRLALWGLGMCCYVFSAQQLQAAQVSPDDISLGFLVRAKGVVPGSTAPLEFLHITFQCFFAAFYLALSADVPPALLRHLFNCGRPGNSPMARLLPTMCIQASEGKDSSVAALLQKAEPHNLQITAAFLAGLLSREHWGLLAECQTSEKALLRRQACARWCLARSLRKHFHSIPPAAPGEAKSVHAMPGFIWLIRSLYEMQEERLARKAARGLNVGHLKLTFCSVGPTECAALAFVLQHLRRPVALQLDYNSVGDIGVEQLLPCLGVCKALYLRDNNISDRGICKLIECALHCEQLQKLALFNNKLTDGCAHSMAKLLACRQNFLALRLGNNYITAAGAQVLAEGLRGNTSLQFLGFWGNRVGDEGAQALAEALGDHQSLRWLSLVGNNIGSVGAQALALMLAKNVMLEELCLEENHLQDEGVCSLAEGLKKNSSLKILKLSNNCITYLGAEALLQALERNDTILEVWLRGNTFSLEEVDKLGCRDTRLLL

HEK293 [5] = assay: NOD2 signaling inhibitors in MDP-stimulated cells, cell-based, uHTS, luminescence (AID 2001); type: functional; conditions: Homo sapiens
HEK293 [6] = assay: cells; type: functional, cell-based; conditions: Homo sapiens; remark: listed apart in the source
HEK293 [7] = assay: cells; type: functional, cell-based; conditions: Homo sapiens; remark: listed apart in the source
[8] = target: T1, Nuclear receptor subfamily 0 group B member 1 (Homo sapiens, UniProt P51843); assay: Luminescence-based cell-based high throughput dose response assay for inhibitors of the orphan nuclear receptor subfamily 0, group B, member 1 (DAX1; NR0B1). [Related pubchem assays (depositor defined):AID504766, AID504790]; type: functional
T1 sequence (P51843 whole entry): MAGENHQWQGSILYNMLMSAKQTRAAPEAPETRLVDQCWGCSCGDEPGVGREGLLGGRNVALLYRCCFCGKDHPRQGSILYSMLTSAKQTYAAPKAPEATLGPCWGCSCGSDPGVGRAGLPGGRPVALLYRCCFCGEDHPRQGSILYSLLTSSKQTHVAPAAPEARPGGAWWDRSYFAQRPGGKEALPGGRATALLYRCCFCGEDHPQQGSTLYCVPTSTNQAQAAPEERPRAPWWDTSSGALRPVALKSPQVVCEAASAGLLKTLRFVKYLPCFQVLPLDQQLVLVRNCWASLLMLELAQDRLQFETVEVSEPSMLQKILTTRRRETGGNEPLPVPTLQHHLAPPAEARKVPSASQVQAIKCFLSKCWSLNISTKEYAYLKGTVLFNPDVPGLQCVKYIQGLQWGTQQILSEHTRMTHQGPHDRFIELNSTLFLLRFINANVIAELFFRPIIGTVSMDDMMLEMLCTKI

CHO = assay: cytotoxicity in TLR9-MyD88 CHO cells, dose response, cytotoxicity control for TLR9-MyD88 binding inhibitor project, cell-based, luminescence (AID 588339); type: functional, hamster; conditions: Cricetulus griseus;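 note: CHO cells stably coexpressing TLR9 and MyD88 fusions from primary screen; compound exposure lasted 48 hours before viability readout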
[9] = target: T2, Mannose-6-phosphate isomerase (Homo sapiens, UniProt P34949); assay: PMI enzyme inhibitors, confirmation, biochemical, fluorescence intensity (AID 1535)
T2 sequence (P34949 whole entry): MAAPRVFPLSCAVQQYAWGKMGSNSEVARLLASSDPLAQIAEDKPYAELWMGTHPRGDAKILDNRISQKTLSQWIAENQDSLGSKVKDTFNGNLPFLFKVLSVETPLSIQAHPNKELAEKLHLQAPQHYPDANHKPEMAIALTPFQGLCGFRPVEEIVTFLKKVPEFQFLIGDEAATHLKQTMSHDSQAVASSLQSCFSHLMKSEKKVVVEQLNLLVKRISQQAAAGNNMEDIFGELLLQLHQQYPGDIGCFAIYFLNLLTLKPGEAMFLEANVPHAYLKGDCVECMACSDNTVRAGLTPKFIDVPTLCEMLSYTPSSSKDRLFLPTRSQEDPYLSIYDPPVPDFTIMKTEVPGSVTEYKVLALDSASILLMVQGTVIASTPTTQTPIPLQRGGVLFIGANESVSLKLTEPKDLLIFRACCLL

Phosphomannomutase 2 = target: T3, Phosphomannomutase 2 (Homo sapiens, UniProt O15305); assay: Counter screen SAR assay for PMM2 inhibitors via a fluorescence intensity assay. [Related pubchem assays (depositor defined):AID1545, AID1574]
T3 sequence (O15305 whole entry): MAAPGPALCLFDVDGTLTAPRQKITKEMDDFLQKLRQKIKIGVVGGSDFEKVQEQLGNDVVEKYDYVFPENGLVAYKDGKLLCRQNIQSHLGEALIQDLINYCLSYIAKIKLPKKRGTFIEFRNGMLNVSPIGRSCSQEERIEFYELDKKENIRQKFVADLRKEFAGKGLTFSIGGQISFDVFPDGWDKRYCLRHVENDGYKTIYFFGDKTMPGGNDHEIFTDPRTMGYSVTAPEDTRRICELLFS

Cysteine protease ATG4B = target: T4, Cysteine protease ATG4B (Homo sapiens, UniProt Q9Y4P1); type: functional;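 note: Fluorescence-based dose-response confirmation assay measuring inhibition of ATG4B activity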
T4 sequence (Q9Y4P1 whole entry): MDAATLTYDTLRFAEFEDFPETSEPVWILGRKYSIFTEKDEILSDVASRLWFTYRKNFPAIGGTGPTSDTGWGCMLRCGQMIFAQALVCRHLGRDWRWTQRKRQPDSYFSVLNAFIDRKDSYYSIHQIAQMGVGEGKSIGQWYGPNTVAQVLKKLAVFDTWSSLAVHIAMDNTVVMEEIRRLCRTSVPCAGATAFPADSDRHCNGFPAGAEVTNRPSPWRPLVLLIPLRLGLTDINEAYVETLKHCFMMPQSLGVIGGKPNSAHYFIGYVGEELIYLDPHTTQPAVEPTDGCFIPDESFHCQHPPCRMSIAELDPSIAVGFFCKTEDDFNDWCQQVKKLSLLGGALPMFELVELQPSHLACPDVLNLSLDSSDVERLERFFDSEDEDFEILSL

Phospholipase A2 = Phospholipase A2 (Homo sapiens, UniProt P04054); type: functional;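 note: confirmatory dose-response counterscreen on phospholipase A2, testing hits that came from an ultra-high-throughput screen for ATG4B inhibitors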
Phospholipase A2, sequence (P04054 whole entry): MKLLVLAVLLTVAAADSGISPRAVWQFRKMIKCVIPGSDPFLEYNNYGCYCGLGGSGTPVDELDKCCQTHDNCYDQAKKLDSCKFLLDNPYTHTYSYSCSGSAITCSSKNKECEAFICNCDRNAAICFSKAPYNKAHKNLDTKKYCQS

[10] = tested on: Streptococcus sp. 'group A'; assay: growth inhibition of control SK(-) GAS strain, dose response, counter-screen for streptokinase expression inhibitor project, luminescence, kanamycin, BacTiterGlo, confirmation (AID 1900); type: functional, organism-based
[11] = inhibitors of intracellular T. cruzi replication, confirmation, NIH3T3 host cells, beta-gal luminescence (AID 2044); type: functional, cell-based;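 note: intracellular parasites grown in NIH/3T3 mouse fibroblasts as host cells; luminescent beta-galactosidase reporter signal from transgenic T. cruzi replicating inside host cells; inhibitors lower the luminescence signal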
[12] = target: Induced myeloid leukemia cell differentiation protein Mcl-1 (Homo sapiens, UniProt Q07820); type: functional
Streptococcus = assay: Group A Streptococcus viability loss, dose response, counter-screen for streptokinase expression inhibitor project, luminescence, BacTiterGlo (AID 1915); type: functional, organism-based;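 note: potency for reduction of bacterial viability or growth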
[13] = target: T5, Voltage-gated N-type calcium channel alpha-1B subunit/Amyloid beta A4 precursor protein-binding family A member 1 (Homo sapiens, UniProt Q00975+Q02410); type: protein assay
T5 sequence (Q00975 whole entry): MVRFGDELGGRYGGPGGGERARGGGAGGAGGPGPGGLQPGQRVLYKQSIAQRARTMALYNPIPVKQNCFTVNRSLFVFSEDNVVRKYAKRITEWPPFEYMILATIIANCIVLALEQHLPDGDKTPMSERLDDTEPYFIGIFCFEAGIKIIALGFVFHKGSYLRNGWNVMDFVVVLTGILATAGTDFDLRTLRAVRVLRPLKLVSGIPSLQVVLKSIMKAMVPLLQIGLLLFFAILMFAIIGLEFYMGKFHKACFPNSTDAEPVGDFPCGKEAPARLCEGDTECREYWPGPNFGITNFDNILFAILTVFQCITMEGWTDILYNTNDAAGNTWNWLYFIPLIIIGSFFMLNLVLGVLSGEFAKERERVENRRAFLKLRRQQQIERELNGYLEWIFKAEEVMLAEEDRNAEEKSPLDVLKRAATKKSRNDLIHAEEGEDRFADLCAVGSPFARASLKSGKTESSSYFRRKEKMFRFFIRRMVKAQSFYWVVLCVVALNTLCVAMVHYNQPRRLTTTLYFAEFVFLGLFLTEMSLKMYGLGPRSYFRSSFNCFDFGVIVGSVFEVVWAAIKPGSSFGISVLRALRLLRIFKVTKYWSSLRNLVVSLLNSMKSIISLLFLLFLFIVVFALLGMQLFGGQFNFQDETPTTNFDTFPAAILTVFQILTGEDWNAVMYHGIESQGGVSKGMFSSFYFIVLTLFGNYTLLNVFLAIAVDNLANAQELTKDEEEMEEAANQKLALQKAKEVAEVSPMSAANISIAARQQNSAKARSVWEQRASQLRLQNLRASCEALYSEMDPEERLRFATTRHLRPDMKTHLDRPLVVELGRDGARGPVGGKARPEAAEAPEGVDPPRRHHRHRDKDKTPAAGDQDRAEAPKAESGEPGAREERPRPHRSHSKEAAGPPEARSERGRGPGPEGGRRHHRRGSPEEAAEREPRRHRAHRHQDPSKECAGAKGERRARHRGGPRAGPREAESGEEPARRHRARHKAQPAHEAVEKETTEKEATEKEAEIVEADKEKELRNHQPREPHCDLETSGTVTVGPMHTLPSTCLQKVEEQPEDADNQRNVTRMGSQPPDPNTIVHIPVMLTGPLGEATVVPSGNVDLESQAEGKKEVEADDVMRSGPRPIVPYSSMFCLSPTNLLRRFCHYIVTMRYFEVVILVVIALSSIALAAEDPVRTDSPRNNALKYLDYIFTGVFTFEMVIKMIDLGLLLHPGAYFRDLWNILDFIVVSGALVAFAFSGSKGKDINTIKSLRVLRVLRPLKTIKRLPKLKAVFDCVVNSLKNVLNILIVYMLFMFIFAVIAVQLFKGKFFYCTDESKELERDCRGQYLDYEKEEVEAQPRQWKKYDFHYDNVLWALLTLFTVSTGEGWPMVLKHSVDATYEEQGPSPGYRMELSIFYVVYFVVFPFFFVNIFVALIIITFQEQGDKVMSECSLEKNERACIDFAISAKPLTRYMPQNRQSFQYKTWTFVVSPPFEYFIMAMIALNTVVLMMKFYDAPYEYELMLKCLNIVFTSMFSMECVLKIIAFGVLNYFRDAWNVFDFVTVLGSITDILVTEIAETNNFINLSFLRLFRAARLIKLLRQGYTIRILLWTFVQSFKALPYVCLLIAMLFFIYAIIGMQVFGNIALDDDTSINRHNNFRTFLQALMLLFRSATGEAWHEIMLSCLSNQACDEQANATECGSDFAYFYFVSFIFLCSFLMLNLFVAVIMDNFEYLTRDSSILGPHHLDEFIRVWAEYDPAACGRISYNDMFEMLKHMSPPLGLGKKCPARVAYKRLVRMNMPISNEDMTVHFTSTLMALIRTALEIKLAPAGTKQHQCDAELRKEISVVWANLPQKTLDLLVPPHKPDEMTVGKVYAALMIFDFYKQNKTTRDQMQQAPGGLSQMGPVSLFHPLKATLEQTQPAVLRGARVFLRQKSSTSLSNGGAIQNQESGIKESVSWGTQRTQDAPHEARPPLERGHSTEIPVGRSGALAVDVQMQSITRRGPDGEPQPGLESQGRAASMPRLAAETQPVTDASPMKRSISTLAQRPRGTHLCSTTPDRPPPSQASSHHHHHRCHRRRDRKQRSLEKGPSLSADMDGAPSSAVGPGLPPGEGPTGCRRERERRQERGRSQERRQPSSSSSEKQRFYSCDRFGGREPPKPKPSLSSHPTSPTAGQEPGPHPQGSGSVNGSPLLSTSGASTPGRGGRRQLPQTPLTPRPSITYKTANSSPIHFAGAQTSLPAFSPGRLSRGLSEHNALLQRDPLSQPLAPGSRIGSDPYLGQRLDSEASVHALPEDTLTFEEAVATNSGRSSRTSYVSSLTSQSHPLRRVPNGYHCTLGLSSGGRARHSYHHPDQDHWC
T5 sequence (Q02410 whole entry): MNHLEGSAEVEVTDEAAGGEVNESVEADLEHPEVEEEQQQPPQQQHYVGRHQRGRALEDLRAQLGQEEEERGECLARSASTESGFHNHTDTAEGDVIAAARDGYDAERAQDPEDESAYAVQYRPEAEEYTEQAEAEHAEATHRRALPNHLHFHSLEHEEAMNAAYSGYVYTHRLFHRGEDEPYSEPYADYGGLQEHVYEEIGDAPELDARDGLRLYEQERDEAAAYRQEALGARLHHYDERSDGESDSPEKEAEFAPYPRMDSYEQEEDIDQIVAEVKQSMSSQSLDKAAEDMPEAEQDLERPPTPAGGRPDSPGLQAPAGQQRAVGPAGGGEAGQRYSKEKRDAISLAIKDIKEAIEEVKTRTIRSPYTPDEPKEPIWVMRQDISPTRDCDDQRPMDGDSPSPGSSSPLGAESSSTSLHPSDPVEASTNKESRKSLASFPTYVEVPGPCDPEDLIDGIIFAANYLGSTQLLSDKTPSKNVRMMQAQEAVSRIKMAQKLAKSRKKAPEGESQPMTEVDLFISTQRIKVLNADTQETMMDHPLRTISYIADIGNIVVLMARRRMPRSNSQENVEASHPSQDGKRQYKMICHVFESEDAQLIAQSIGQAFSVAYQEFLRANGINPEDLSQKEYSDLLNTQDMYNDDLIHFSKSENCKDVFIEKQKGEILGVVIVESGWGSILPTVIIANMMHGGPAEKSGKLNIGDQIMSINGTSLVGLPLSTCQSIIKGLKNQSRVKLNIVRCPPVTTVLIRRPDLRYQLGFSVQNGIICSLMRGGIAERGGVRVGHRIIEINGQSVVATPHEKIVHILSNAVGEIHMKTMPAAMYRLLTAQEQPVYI

Large T antigen = Large T antigen (Simian virus 40, UniProt P03070); type: functional, Betapolyomavirus macacae;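 note: Confirmatory-stage PubChem screen for compounds that inhibit SV40 T antigen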
Large T antigen, sequence (P03070 whole entry): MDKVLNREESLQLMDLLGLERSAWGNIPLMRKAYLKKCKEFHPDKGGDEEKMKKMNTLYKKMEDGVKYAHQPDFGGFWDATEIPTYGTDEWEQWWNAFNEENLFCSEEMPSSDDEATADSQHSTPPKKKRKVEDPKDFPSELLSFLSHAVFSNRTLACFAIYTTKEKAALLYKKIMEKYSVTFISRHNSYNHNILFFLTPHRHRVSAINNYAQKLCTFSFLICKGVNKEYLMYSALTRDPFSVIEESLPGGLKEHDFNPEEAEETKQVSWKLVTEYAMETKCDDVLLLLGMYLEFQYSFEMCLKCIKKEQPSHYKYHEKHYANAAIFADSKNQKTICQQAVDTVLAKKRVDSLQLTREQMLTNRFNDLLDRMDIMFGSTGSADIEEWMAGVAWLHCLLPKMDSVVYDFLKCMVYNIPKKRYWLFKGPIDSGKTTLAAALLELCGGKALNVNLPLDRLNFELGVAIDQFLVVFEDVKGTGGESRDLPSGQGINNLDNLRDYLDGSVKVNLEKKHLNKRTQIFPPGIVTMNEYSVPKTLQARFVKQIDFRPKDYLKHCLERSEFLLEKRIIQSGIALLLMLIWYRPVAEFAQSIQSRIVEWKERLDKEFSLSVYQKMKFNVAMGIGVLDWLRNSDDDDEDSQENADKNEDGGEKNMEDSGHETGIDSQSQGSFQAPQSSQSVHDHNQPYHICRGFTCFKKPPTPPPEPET

[14] = target: T5, Voltage-gated N-type calcium channel alpha-1B subunit/Amyloid beta A4 precursor protein-binding family A member 1; type: protein assay; remark: listed apart in the source
[15] = cytotoxicity toward NIH3T3 fibroblasts, dose response, counter-screen, cell-based, ATP luminescence, mouse fibroblasts (AID 2010); type: functional;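 note: cells exposed to compound for about 90 hours before reading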
[16] = target: T6, Corticotropin-releasing factor receptor 2/Corticotropin-releasing factor-binding protein (Homo sapiens, UniProt P24387+Q13324); assay: Dose Response confirmation of uHTS hits for small molecule antagonists of the CRF-binding protein and CRF-R2 receptor complex.; type: functional; conditions: read-out: IC50_Mean
T6 sequence (Q13324 whole entry): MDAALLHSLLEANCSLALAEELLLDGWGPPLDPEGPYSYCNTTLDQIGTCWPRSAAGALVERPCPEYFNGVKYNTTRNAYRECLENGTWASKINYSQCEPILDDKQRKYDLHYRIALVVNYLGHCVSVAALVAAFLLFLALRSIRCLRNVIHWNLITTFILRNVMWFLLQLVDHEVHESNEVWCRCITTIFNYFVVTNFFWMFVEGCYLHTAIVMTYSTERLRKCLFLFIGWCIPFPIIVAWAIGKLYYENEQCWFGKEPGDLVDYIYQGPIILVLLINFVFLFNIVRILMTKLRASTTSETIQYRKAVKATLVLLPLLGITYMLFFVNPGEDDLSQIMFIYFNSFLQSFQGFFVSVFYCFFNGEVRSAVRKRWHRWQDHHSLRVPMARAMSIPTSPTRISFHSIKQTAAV
T6 sequence (P24387 whole entry): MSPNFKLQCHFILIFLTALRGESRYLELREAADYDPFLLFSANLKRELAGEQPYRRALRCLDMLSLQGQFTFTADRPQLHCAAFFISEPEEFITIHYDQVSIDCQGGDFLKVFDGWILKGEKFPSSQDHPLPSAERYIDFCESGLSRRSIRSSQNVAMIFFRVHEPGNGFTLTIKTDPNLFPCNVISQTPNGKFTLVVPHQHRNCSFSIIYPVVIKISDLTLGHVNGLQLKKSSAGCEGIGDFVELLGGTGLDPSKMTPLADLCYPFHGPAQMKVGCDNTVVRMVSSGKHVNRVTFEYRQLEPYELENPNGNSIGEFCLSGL

[17] = target: T6, Corticotropin-releasing factor receptor 2/Corticotropin-releasing factor-binding protein; assay: activators of CRF receptor 2 with binding protein – uHTS hits, confirmation (AID 602473); type: functional; conditions: read-out: EC50_Mean
[18] = CRF-BP/CRF-R2 complex antagonists, dose response, cell-based, uHTS hits, 384-well (AID 651639); type: functional, Homo sapiens; conditions: read-out: IC50_Mean
[19] = HeLa cell cytotoxicity, dose response, cytotoxicity control for MgcRacGAP inhibitor project (AID 624300); type: functional
[20] = target: T7, Rac GTPase-activating protein 1 (Homo sapiens, UniProt Q9H0H5); assay: MgcRacGAP GTPase-activating activity inhibitors, confirmation, biochemical, ADP Hunter fluorescence, primary and confirmatory (AID 624330); type: functional
T7 sequence (Q9H0H5 whole entry): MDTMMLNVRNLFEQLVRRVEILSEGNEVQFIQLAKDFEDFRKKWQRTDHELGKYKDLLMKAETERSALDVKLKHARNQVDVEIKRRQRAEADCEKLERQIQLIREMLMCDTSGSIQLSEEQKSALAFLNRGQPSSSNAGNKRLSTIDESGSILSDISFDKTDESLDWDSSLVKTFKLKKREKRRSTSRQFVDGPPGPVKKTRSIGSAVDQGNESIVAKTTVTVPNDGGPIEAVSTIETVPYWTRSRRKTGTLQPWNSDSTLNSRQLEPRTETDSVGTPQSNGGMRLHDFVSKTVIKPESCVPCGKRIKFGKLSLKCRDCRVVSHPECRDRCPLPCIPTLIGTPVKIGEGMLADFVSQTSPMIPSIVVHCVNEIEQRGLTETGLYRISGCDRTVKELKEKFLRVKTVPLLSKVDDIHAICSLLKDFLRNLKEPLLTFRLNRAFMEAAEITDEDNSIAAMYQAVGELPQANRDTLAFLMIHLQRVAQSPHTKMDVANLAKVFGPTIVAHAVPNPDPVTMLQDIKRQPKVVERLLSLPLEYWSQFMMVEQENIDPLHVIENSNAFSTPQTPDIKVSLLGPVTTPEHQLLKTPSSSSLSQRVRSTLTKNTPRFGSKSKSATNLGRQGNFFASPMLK

O=C(Nc1cc(S(=O)(=O)N2CCOCC2)ccc1N1CCCC1)c1ccc(Cl)cc1
AC50 (Escherichia coli): 25.2 µM (active)

Cc1ccc(CNc2ncnc(N)c2[N+](=O)[O-])cc1
EC50 (HEK293 [1]): 19 µM (active) | IC50 (HEK293 [2]): 1.83 µM (active) | IC50 (HEK293 [3]): > 20 µM (inactive) | EC50 [4]: > 20 µM (inactive) | IC50 (HEK293 [5]): 4.01 µM (active) | IC50 (HEK293 [6]): > 20 µM (inactive)

O=C(CCc1ccccc1)NC(=S)Nc1ccccc1Br
IC50 (HEK293 [7]): > 67.5 µM (inactive) | IC50 [8]: > 67.5 µM (inactive)

CCCCNC(=O)COC(=O)c1c2c(nc3ccccc13)/C(=C/c1cccs1)CC2
IC50 (CHO): > 49.7 µM (inactive)

Sc1nnc(C2COc3ccccc3O2)o1 (stereo not drawn)
IC50 [9]: > 50 µM (inactive) | IC50 (Phosphomannomutase 2): > 100 µM (inactive)

Nc1nn(-c2ccccc2)c(N)c1N=Nc1ccc2c(c1)OCO2
IC50 (Cysteine protease ATG4B): 15.9 µM (active) | IC50 (Phospholipase A2): 10.4 µM (active)

COc1ccc(-c2n[nH]c(N)n2)cc1
IC50 [9]: > 50 µM (inactive) | IC50 (Phosphomannomutase 2): > 100 µM (inactive)

O=C(COC(=O)CN1C(=O)NC2(CCCC2)C1=O)Nc1ccccc1C(F)(F)F
IC50 (HEK293 [7]): > 67.5 µM (inactive) | IC50 [8]: > 67.5 µM (inactive)

O=S(=O)(NCc1ccc2c(c1)OCO2)c1ccc(F)cc1
IC50 (HEK293 [7]): > 67.6 µM (inactive) | IC50 [8]: > 67.6 µM (inactive)

O=[N+]([O-])c1ccc(/C=N/NC(=S)Nc2ccc(Cl)cc2Cl)s1
EC50 (HEK293 [1]): 6.09 µM (active) | EC50 [10]: 2.38 µM (active) | IC50 (HEK293 [2]): 11.4 µM (active) | IC50 (HEK293 [3]): 17.3 µM (active) | EC50 [4]: > 20 µM (inactive) | IC50 (HEK293 [5]): 7.77 µM (inactive) | EC50 [11]: 0.651 µM (active) | IC50 (HEK293 [6]): > 20 µM (inactive) | IC50 [12]: 4.67 µM (active) | EC50 (Streptococcus): 2.56 µM (active)

O=c1[nH]sc2ccccc12
IC50 [13]: 12.2 µM (active) | IC50 (Large T antigen): 32.3 µM (active) | IC50 [14]: > 50 µM (inactive) | EC50 [11]: 0.524 µM (active) | EC50 [15]: 15.7 µM (active) | IC50 [9]: > 50 µM (inactive) | IC50 (Phosphomannomutase 2): > 100 µM (inactive)

Cc1[nH]n(-c2cccc(Cl)c2)c(=O)c1-c1ccc(Cl)cc1
EC50 (HEK293 [1]): 2.43 µM (active) | IC50 (HEK293 [2]): 14.2 µM (active) | IC50 (HEK293 [3]): > 20 µM (inactive) | EC50 [4]: 12.8 µM (active) | IC50 (HEK293 [5]): 9.97 µM (inactive) | IC50 (HEK293 [6]): > 20 µM (inactive) | IC50 [16]: 0.98 µM (active) | EC50 [17]: > 53 µM (inactive) | IC50 [18]: > 20 µM (inactive) | CC50 [19]: 100 µM (active) | IC50 [20]: 80 µM (active)
